Target: T1, HNF4α (Mus musculus, UniProt P49698)
T1 construct: from tissue; host or cells: liver of C57BL/6J mice
Assay: Immunofluorescence of hepatic HNF4α in HFD mice
Assay type: in vivo
Conditions: oral NCT in HFD chow, 10 weeks
Description: Frozen liver sections were permeabilized using 0.3% Triton-X and incubated in antigen retrieval solution (Antigen retrieval citrate, Biogenex) at sub-boiling temperature for 10 min. Subsequently, sections were incubated with blocking buffer containing 5% normal donkey serum (Jackson Immuno Research) followed by incubation overnight at 4° C. with mouse anti-HNF4α monoclonal antibody (1:800, Cat #PP-H1415-00, R&D Systems), rabbit polyclonal anti-VDAC antibody (1:400, cat #PA1-954A, Invitrogen) and cleaved caspase3 antibody (1:500, cat #9664, Cell Signaling). Sections were washed and incubated for 1 hour at room temperature with anti-mouse secondary antibody coupled with Alexa fluor 488 (1:400, Invitrogen) and antirabbit secondary antibody coupled with rhodamine red. Nuclei were visualized by counterstaining with DAPI (40,6-diamidino-2-phenylindole, Sigma Aldrich). Slides were mounted using fluorescence mounting medium and images were obtained at 40× magnification using an Olympus IX71 fluorescence microscope. Fluorescence intensity of HNF4α-stained nuclei and VDAC stained mitochondria was calculated using MetaMorph TL software (version 7.6.5.0, Olympus). Fold change was calculated by normalizing to values from mice fed NC.

T1 sequence (P49698 whole entry): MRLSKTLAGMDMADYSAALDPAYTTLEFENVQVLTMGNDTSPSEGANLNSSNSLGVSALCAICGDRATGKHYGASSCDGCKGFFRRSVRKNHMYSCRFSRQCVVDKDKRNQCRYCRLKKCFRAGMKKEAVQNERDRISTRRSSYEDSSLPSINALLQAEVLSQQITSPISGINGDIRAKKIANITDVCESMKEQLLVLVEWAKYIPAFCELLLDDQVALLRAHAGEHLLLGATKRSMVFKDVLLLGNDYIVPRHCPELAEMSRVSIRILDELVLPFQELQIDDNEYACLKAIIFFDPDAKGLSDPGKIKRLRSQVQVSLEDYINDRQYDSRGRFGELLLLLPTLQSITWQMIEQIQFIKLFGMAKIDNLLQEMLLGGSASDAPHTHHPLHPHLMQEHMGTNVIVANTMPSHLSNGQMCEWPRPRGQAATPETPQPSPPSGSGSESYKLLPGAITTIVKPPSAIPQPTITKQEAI

O=C(/C=C/c1ccc(O)c(O)c1)NCCc1ccc(O)cc1 [NCT, N-transcaffeoyltyramine]
hepatic HNF4α expression (HFD-induced decrease): reversed

Reference: patent publication US20240374546A1, “USES AND METHODS FOR PROMOTING INCREASED MITOCHONDRIAL MASS AND FUNCTION” (Brightseed, Inc., priority 2022, published 2024)
